From publication PMC12794188, “Maternal–Fetal Transfer and Toxicokinetics of 2,2′,5,5′-Tetrachlorobiphenyl, [^14C]-PCB52, Following Intratracheal Administration” (Chemical Research in Toxicology, 2025)

Assay: Toxicokinetics and tissue disposition of total [14C] radioactivity after a single intratracheal dose of [14C]-PCB52 (0.157 mg/kg) in pregnant rats at GD 11±1
Type: in vivo, Sprague–Dawley rats
Description: Female Sprague–Dawley rats (8 weeks old) weighing 237–269.7 g (mean = 247.5 g) (Envigo RMS, LLC, Indianapolis, IN) were used for this study. All animal experiments were performed following the protocols evaluated and approved by the University of Iowa Institutional Animal Care and Use Committee (approval number 3091097). After arrival, the animals were acclimated for 7 days. The animals were housed in a light and temperature-controlled environment with ad libitum access to food and water during quarantine and throughout the study. Timed pregnancy was achieved by harem mating. , Briefly, one male and two female rats were placed together in the evening and checked for vaginal plug the following day. If vaginal plug was present, the male was removed from the breeding cage, and the gestation day 0 (GD 0), 0-day post coitum was assigned. Pregnancies were confirmed by ultrasound scan at GD 9. The dams were exposed at GD 11 (±1 day) to capture the period of early organogenesis and hormonal function, which falls within week 3 of human embryonic development. ,− On the day of the experiment, pregnant rats were intratracheally administered an average of 40 μg (range, 35–45 μg) of [^14C]-PCB52 in 100 μL of exposure solution. Although the dose used in this study exceeded the tolerable daily intake (TDI) of PCBs for healthy individuals, which is 1.6 μg per day for an individual weighing 80 kg, the use of higher acute doses has been established in toxicological studies intended for risk assessment. The intratracheal instillation method was chosen for administering [^14C]-PCB52 to represent inhalation exposures, capture exhaled concentration, and efficiently utilize the limited availability of the cost-intensive radiolabeled PCB52. , Although inhalation exposure would better represent real-world exposures to airborne LC-PCBs, it would not allow us to accurately measure the amount of PCB52 exhaled into the air after exposure and is experimentally infeasible. […] All intratracheal instillations were done under light anesthesia, achieved using a 4% isoflurane concentration via a Fortec vaporizer (Cyprane, Keighley, UK). The animals recovered from anesthesia within 1 min. Subsequently, the animals were housed within a cylindrical glass chamber measuring 2 L in volume, equipped with glass drainage mechanisms to facilitate urine collection and a metallic screen to segregate urine from feces (as in Figure S1). Air was drawn from the chamber at 6.0 L/min through a cartridge containing the XAD-2 polymeric resin to capture any exhaled [^14C]-PCB52. For periods longer than 24 h postexposure, exposed dams were placed in a metabolic cage, which was fitted with a cartridge containing XAD-2 to capture exhaled [^14C]-PCB52 as in other end points.
Maternal blood, urine, and feces samples were collected immediately before and at 0.21, 1.67, 12, 24, 48, and 96 h after lung dosing. The exposed dams were euthanized using 4% isoflurane, followed by cervical dislocation and exsanguination via a cardiac puncture. Euthanasia was consistently performed during the light cycle. Dams’ fur was wiped and analyzed for radioactivity. Using the retro-orbital blood collection method, 0.5–1.5 mL ([…] of an exposed pregnant rat’s body weight) of blood sample was collected from each of the dams until the individual dams were necropsied for whole-body tissue harvesting. At the end of the exposure period, the chamber’s interior walls were rinsed separately with water and acetone/hexane (25 – 45 mL) and wiped to measure residues. From the collected whole blood samples, 100 μL were aliquoted into three vials each, and the remaining blood was allowed to clot at room temperature before being centrifuged to yield serum. The placentas, developing fetuses, and whole-body tissue samples were harvested immediately before exposure and at 0.21, 1.67, 12, 24, and 96 h postexposure. […]

[1] = mammary gland/MS (maternal serum)
[2] = ratios of toxicokinetic parameters

Compound: Clc1ccc(Cl)c(-c2cc(Cl)ccc2Cl)c1 [PCB52, 2,2′,5,5′-Tetrachlorobiphenyl]
- Conc. per mg wet tissue (Trachea, 12 h post-exposure): 13.20 dpm/mg
- Percent tissue distribution (Trachea, 12 h post-exposure): 0.08%
- Conc. per mg wet tissue (Trachea, 24 h post-exposure): 6.29 dpm/mg
- Percent tissue distribution (Trachea, 24 h post-exposure): 0.04%
- Conc. per mg wet tissue (Trachea, 96 h post-exposure): 1.03 dpm/mg
- Percent tissue distribution (Trachea, 96 h post-exposure): 0.01%
- AUC_%Extrap (Uterus): 17.37%
- Terminal elimination half-life (t1/2) (Uterus): 34.85 h
- Conc. per mg wet tissue (Uterus, 0.21 h post-exposure): 0.37 dpm/mg
- Percent tissue distribution (Uterus, 0.21 h post-exposure): 0.21%
- Conc. per mg wet tissue (Uterus, 1.67 h post-exposure): 2.43 dpm/mg
- Percent tissue distribution (Uterus, 1.67 h post-exposure): 0.11%
- Conc. per mg wet tissue (Uterus, 12 h post-exposure): 0.93 dpm/mg
- Percent tissue distribution (Uterus, 12 h post-exposure): 0.06%
- Conc. per mg wet tissue (Uterus, 24 h post-exposure): 2.20 dpm/mg
- Percent tissue distribution (Uterus, 24 h post-exposure): 0.16%
- Conc. per mg wet tissue (Uterus, 96 h post-exposure): 0.37 dpm/mg
- Percent tissue distribution (Uterus, 96 h post-exposure): 0.13%
- AUC_% extrap (amniotic fluid): 7.8%
- AUC_%Extrap (amniotic fluid): 8.11%
- Terminal elimination half-life (t1/2) (amniotic fluid): 26.38 h
- maternal serum exposure ratio (amniotic fluid): 0.05
- AUC0–96h ratio (brain/MS (maternal serum)): 0.672
- C max ratio (brain/MS (maternal serum)): 0.598
- AUC0–96h ratio (brain/thyroid): 0.276
- C max ratio (brain/thyroid): 0.298
- concentration in brown adipose relative to white adipose (brown vs white adipose): five times higher
- biological half-life (dams): less than 2 days
- biological half-life (developing fetuses): less than 2 days
- AUC0‑∞ ratio (fetus/AF (amniotic fluid)): 5.472
- AUC0–96h ratio (fetus/AF (amniotic fluid)): 5.405
- C max ratio (fetus/AF (amniotic fluid)): 5.767
- AUC0–96h ratio (fetus/MS (maternal serum)): 0.100
- C max ratio (fetus/MS (maternal serum)): 0.135
- AUC0‑∞ ratio (fetus/mammary gland): 46.45
- AUC0–96h ratio (fetus/mammary gland): 43.42
- C max ratio (fetus/mammary gland): 11.47
- AUC0‑∞ ratio (fetus/ovary): 0.078
- AUC0–96h ratio (fetus/ovary): 0.094
- C max ratio (fetus/ovary): 0.163
- AUC0–96h ratio (fetus/pituitary): 0.026
- C max ratio (fetus/pituitary): 0.052
- AUC0‑∞ ratio (fetus/placenta): 0.569
- AUC0–96h ratio (fetus/placenta): 0.538
- C max ratio (fetus/placenta): 0.778
- AUC0‑∞ ratio (fetus/thymus): 0.125
- AUC0–96h ratio (fetus/thymus): 0.152
- C max ratio (fetus/thymus): 0.314
- AUC0‑∞ ratio (fetus/thyroid): 8.805
- AUC0–96h ratio (fetus/thyroid): 8.445
- C max ratio (fetus/thyroid): 8.150
- AUC0‑∞ ratio [1]: 12.59
- AUC0–96h ratio [1]: 12.52
- C max ratio [1]: 2.822
- AUC_% extrap (maternal serum): 14.2%
- blood-to-plasma ratio (observed experimental): 0.53
- AUC0–96h ratio (ovary/MS (maternal serum)): 3.043
- C max ratio (ovary/MS (maternal serum)): 1.512
- AUC0–96h ratio (pituitary/MS (maternal serum)): 11.289
- C max ratio (pituitary/MS (maternal serum)): 4.741
- AUC0–96h ratio (pituitary/thymus): 5.933
- C max ratio (pituitary/thymus): 4.114
- AUC_% extrap (placenta): 4.1%
- AUC_%Extrap (placenta): 4.14%
- Terminal elimination half-life (t1/2) (placenta): 21.11 h
- maternal serum exposure ratio (placenta): 0.5
- AUC0‑∞ ratio (placenta/MS (maternal serum)): 0.477
- AUC0–96h ratio (placenta/MS (maternal serum)): 0.536
- C max ratio (placenta/MS (maternal serum)): 0.316
- time at which brown/white adipose concentration ratio reached unity (postexposure): 24 h
- amniotic fluid-to-fetus ratio [2]: < 1
- fetus-to-amniotic fluid ratio [2]: > 5
- AUC0‑∞ ratio (thymus/MS (maternal serum)): 2.169
- AUC0–96h ratio (thymus/MS (maternal serum)): 1.903
- C max ratio (thymus/MS (maternal serum)): 1.152
- AUC0‑∞ ratio (thyroid/MS (maternal serum)): 2.387
- AUC0–96h ratio (thyroid/MS (maternal serum)): 2.435
- C max ratio (thyroid/MS (maternal serum)): 2.005
- AUC0‑∞ ratio (uterus/MS (maternal serum)): 0.917
- AUC0–96h ratio (uterus/MS (maternal serum)): 0.888
- C max ratio (uterus/MS (maternal serum)): 0.296
- AUC0‑∞ ratio (uterus/ovary): 0.262
- AUC0–96h ratio (uterus/ovary): 0.292
- C max ratio (uterus/ovary): 0.196
